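Dose response: 5 concentrations. Exposure: 48 h. Format: 96-well plates. Endpoint: linear interpolation; highest concentration if not reached. Here, GI50 denotes the concentration required for 50% inhibition of growth.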 Active and inactive are the calls of the source. Cut-off read from the data, not from the text of the source: active = GI50 up to about 1.1 µM and inactive = higher.
Tests used:
Test in all cases: NCI-60 cell line screen, 48 h
[1] = test system: 786-0
[2] = test system: A498
[3] = test system: A549
[4] = test system: ACHN
[5] = test system: CAKI-1
[6] = test system: CCRF-CEM
[7] = test system: COLO 205
[8] = test system: DLD-1
[9] = test system: DMS-114
[10] = test system: DMS-273
[11] = test system: EKVX
[12] = test system: HCC 2998
[13] = test system: HCT-116
[14] = test system: HCT-15
[15] = test system: HL-60
[16] = test system: HOP-18
[17] = test system: HOP-62
[18] = test system: HOP-92
[19] = test system: HT-29
[20] = test system: IGROV-1
[21] = test system: K562
[22] = test system: KM12
[23] = test system: LXFL 529
[24] = test system: M14
[25] = test system: M19-MEL
[26] = test system: MOLT-4
[27] = test system: Malme-3M
[28] = test system: NCI-H226
[29] = test system: NCI-H23
[30] = test system: NCI-H460
[31] = test system: NCI-H522
[32] = test system: OVCAR-3
[33] = test system: OVCAR-4
[34] = test system: OVCAR-5
[35] = test system: OVCAR-8
[36] = test system: RPMI-8226
[37] = test system: SF-268
[38] = test system: SF-295
[39] = test system: SF-539
[40] = test system: SK-MEL-28
[41] = test system: SK-MEL-2
[42] = test system: SK-MEL-5
[43] = test system: SK-OV-3
[44] = test system: SN12C
[45] = test system: SNB-19
[46] = test system: SNB-75
[47] = test system: SNB-78
[48] = test system: SR
[49] = test system: SW-620
[50] = test system: TK-10
[51] = test system: U-251
[52] = test system: UACC-257
[53] = test system: UACC-62
[54] = test system: UO-31
[55] = test system: KM-20L2
[56] = test system: LOX IMVI

`CC1(c2ccccc2)CC(c2ccccc2)=NO1` (stereo not drawn) was tested, and the GI50 [1] was > 100 µM (inactive), the GI50 [2] was > 100 µM (inactive) and the GI50 [3] was > 100 µM (inactive). For the same compound, the GI50 [4] was > 100 µM (inactive), the GI50 [5] was > 100 µM (inactive) and the GI50 [6] was > 100 µM (inactive). For the same compound, the GI50 [7] was > 100 µM (inactive), the GI50 [8] was > 100 µM (inactive) and the GI50 [9] was > 100 µM (inactive). The GI50 [10] was > 100 µM (inactive), the GI50 [11] was > 100 µM (inactive) and the GI50 [12] was > 100 µM (inactive). The GI50 [13] was > 100 µM (inactive), the GI50 [14] was greater than 100 µM and the GI50 [15] was > 100 µM (inactive). The GI50 [16] was > 100 µM (inactive), the GI50 [17] was > 100 µM (inactive) and the GI50 [18] was > 100 µM (inactive). For the same compound, the GI50 [19] was > 100 µM (inactive), the GI50 [20] was > 100 µM (inactive) and the GI50 [21] was > 100 µM (inactive). The GI50 [22] was > 100 µM (inactive), the GI50 [23] was > 100 µM (inactive) and the GI50 [24] was > 100 µM (inactive). The GI50 [25] was > 100 µM (inactive), the GI50 [26] was > 100 µM (inactive) and the GI50 [27] was > 100 µM (inactive). The GI50 [28] was > 100 µM (inactive), the GI50 [29] was > 100 µM (inactive) and the GI50 [30] was > 100 µM (inactive). For the same compound, the GI50 [31] was > 100 µM (inactive), the GI50 [32] was > 100 µM (inactive) and the GI50 [33] was > 100 µM (inactive). The GI50 [34] was > 100 µM (inactive), the GI50 [35] was > 100 µM (inactive) and the GI50 [36] was > 100 µM (inactive). The GI50 [37] was > 100 µM (inactive), the GI50 [38] was > 100 µM (inactive) and the GI50 [39] was > 100 µM (inactive). The GI50 [40] was > 100 µM (inactive), the GI50 [41] was > 100 µM (inactive) and the GI50 [42] was > 100 µM (inactive). For the same compound, the GI50 [43] was > 100 µM (inactive), the GI50 [44] was > 100 µM (inactive) and the GI50 [45] was > 100 µM (inactive). For the same compound, the GI50 [46] was > 100 µM (inactive), the GI50 [47] was > 100 µM (inactive) and the GI50 [48] was > 100 µM (inactive). The GI50 [49] was > 100 µM (inactive), the GI50 [50] was > 100 µM (inactive) and the GI50 [51] was > 100 µM (inactive). For the same compound, the GI50 [52] was > 100 µM (inactive), the GI50 [53] was > 100 µM (inactive) and the GI50 [54] was > 100 µM (inactive).
With `C=C=C[P+](c1ccccc1)(c1ccccc1)c1ccccc1` the GI50 [1] was 5.02 µM (inactive), the GI50 [2] was 93.8 µM (inactive) and the GI50 [3] was 26.8 µM (inactive). For the same compound, the GI50 [4] was 14.5 µM (inactive), the GI50 [6] was 2.94 µM (inactive) and the GI50 [7] was 2.57 µM (inactive). For the same compound, the GI50 [8] was 5.61 µM (inactive), the GI50 [9] was 8.69 µM (inactive) and the GI50 [10] was 27.6 µM (inactive). For the same compound, the GI50 [12] was 42.6 µM (inactive), the GI50 [13] was 3.37 µM (inactive) and the GI50 [14] was 11.5 µM. For the same compound, the GI50 [15] was 5.08 µM (inactive), the GI50 [16] was 46.7 µM (inactive) and the GI50 [17] was 53.1 µM (inactive). The GI50 [20] was 31.5 µM (inactive), the GI50 [21] was 3.4 µM (inactive) and the GI50 [22] was 13 µM (inactive). For the same compound, the GI50 [23] was 3.91 µM (inactive), the GI50 [24] was 6.05 µM (inactive) and the GI50 [25] was 14.5 µM (inactive). For the same compound, the GI50 [26] was 2.6 µM (inactive), the GI50 [27] was 13.2 µM (inactive) and the GI50 [30] was 18.2 µM (inactive). For the same compound, the GI50 [31] was 2.24 µM (inactive), the GI50 [32] was 5.57 µM (inactive) and the GI50 [33] was 21.9 µM (inactive). For the same compound, the GI50 [35] was 3.13 µM (inactive), the GI50 [36] was 1.55 µM (inactive) and the GI50 [37] was 15.3 µM (inactive). The GI50 [39] was 14.8 µM (inactive), the GI50 [40] was 21.4 µM (inactive) and the GI50 [41] was 10.7 µM (inactive). The GI50 [42] was 5.86 µM (inactive), the GI50 [43] was 45.6 µM (inactive) and the GI50 [44] was 3.78 µM (inactive). For the same compound, the GI50 [46] was 8.79 µM (inactive), the GI50 [47] was 16.9 µM (inactive) and the GI50 [48] was 21.3 µM (inactive). For the same compound, the GI50 [50] was 26.2 µM (inactive), the GI50 [51] was 3.56 µM (inactive) and the GI50 [52] was 7.06 µM (inactive). For the same compound, the GI50 [54] was 35.2 µM (inactive).
For `COc1nc(=O)n(COC(CO)CN2C(=O)c3ccccc3C2=O)cc1Cc1cccc(OCc2ccccc2)c1` (stereo not drawn), the GI50 [1] was > 10 µM (inactive), the GI50 [3] was 23.5 µM (inactive) and the GI50 [4] was 23.7 µM (inactive). The GI50 [6] was 24.1 µM (inactive), the GI50 [7] was 19.8 µM (inactive) and the GI50 [8] was 28.3 µM (inactive). For the same compound, the GI50 [9] was 22 µM (inactive), the GI50 [10] was 19.4 µM (inactive) and the GI50 [11] was 33.8 µM (inactive). The GI50 [12] was 20.7 µM (inactive), the GI50 [13] was 29.4 µM (inactive) and the GI50 [14] was 28.2 µM. For the same compound, the GI50 [15] was 21.1 µM (inactive), the GI50 [16] was 27.5 µM (inactive) and the GI50 [18] was 21 µM (inactive). The GI50 [19] was 34 µM (inactive), the GI50 [20] was 24.8 µM (inactive) and the GI50 [21] was 24.9 µM (inactive). For the same compound, the GI50 [55] was 26.2 µM (inactive), the GI50 [22] was 28.2 µM (inactive) and the GI50 [56] was 20.1 µM (inactive). For the same compound, the GI50 [23] was 30.1 µM (inactive), the GI50 [24] was 20.4 µM (inactive) and the GI50 [25] was 20.7 µM (inactive). The GI50 [26] was 21.2 µM (inactive), the GI50 [28] was 17.4 µM (inactive) and the GI50 [29] was 27.2 µM (inactive). For the same compound, the GI50 [32] was 21.9 µM (inactive), the GI50 [33] was 21.8 µM (inactive) and the GI50 [35] was 34.5 µM (inactive). For the same compound, the GI50 [36] was 18.6 µM (inactive), the GI50 [38] was 22.1 µM (inactive) and the GI50 [39] was 16.6 µM (inactive). For the same compound, the GI50 [40] was 17.2 µM (inactive), the GI50 [41] was 15.4 µM (inactive) and the GI50 [42] was 15.7 µM (inactive). For the same compound, the GI50 [43] was 26.5 µM (inactive), the GI50 [44] was 22 µM (inactive) and the GI50 [45] was 29.6 µM (inactive). The GI50 [46] was 15.5 µM (inactive), the GI50 [47] was 31.6 µM (inactive) and the GI50 [49] was 42.7 µM (inactive). The GI50 [50] was 27 µM (inactive), the GI50 [51] was 21.9 µM (inactive) and the GI50 [53] was 14.6 µM (inactive). For the same compound, the GI50 [54] was 16.3 µM (inactive).
